Results published in patent US20120088807A1, “INTERLACED METHOD FOR TREATING CANCER OR A PRECANCEROUS CONDITION” (TAU THERAPEUTICS LLC, priority 2009, published 2012).

How the values were obtained:
D54 tumors [1] = test: Interlaced therapy, human glioblastoma murine xenograft model (Example 4); assay type: in vivo, Mice
Description: Studies of interlaced therapy for human glioblastoma in a murine xenograft model using the D54 cell line were conducted. Mice bearing subcutaneous implants of D54 tumors, which were allowed to become established at a volume of about 100 mm^3, were treated with mibefradil at 40 mg/kg p.o. q.i.d. for 7 days or left untreated. On day seven, all animals received the S phase cytotoxin temozolamide at a dose of 25% of the LD10 over five days. Following two days of no treatment, mibefradil was re-started at a dose of 35 mg/kg p.o. q.i.d. in the group of mice which were originally treated with mibefradil. On day 20, the mean tumor volume in the temozolamide only group of mice was 173 mm^3 as compared to the temozolamide plus mibefradil group of mice, whose mean tumor volume was 102 mm^3 (p=0.0485; n=10/group; Student's pooled, two tailed t-test). A pooled, two tailed. Student's t-test over all seven tumor volume measurements yielded p=0.0329. There were no animals that were euthanized in either group due to tumor size. The mean volume in the control group, which received no intervention, was 1214 mm^3 with three animals euthanized because of tumor size.

D54 tumors [2] = test: Interlaced therapy, human glioblastoma murine xenograft model, two cytotoxin rounds (Example 5); assay type: in vivo, Mice; conditions: over 30 days; subcutaneous D54; temozolamide 25% then 10% of LD10; mibefradil 40 then 35 mg/kg p.o. q.i.d.
Description: Further studies of interlaced therapy for human glioblastoma in a murine xenograft model using the D54 cell line were conducted. Mice bearing subcutaneous implants of D54 tumors, which were allowed to become established, were treated with mibefradil at 40 mg/kg p.o. q.i.d. for 7 days or left untreated. On day seven, all animals received the S phase cytotoxin temozolamide at a dose of 25% of the LD10 over five days. Following two days of no treatment, mibefradil was re-started at a dose of 35 mg/kg p.o. q.i.d. in the group of mice which were originally treated with mibefradil.

A10 cells = test: Cell cycle analysis using flow cytometry and BUdR staining; assay type: cell-based
Description: Cell cycle analysis was performed using flow cytometry and BUdR staining. In FIG. 3, “Con” represents untreated, control cells. All other cell cultures were treated with nocodazole, which interferes with microtubule polymerization and blocks the cell cycle during M phase. […] Because A10 cells reside primarily in the cell cycle checkpoint between G0 and G1 (See “Con” in FIG. 3), evaluating the possibility that a pharmacologic agent inhibits transit out of that phase is not as straightforward as determining blockade at other cell cycle checkpoints. Therefore, cell cultures were treated for 24 hours with T channel calcium channel blockers mibefradil (mib), nickel (Ni) or TTL-1177 (a proprietary compound owned by the assignee Tau Therapeutics), before adding nocodazole. Absent an effect on the T channel blockers, cells would be locked at the cell cycle checkpoint between G2 and M by nocodazole as happened with cells treated with it alone.

PANC 219 tumor = assay type: in vivo; conditions: mibefradil 65 mg/kg p.o. b.i.d.
Description: Pancreatic cancers resected from patients were immediately transplanted into the flanks of nude mice and maintained by serial, in vivo passage. Transplanted tumors were implanted at a volume of about 100 mm^3 and allowed to grow to 200 to 300 mm^3 before initiation of treatment. Mice bearing the PANC 219 tumor were either left untreated or treated with mibefradil at 65 mg/kg p.o. b.i.d. (n=10 in each group). Tumor growth was normalized to the size measured at the start of treatment.

[3] = A10 cells treated 24 hours with T channel blocker before adding nocodazole

## Cn1nnc2c(C(N)=O)ncn2c1=O [temozolamide]
D54 tumors [1]; day 20, subcutaneous D54, temozolamide 25% of LD10 over five days, mibefradil 40 then 35 mg/kg p.o. q.i.d., n=10/group
  mean tumor volume: 173 mm^3
D54 tumors [1]; subcutaneous D54, n=10/group
  animals euthanized due to tumor size: no animals
D54 tumors [2]
  mean tumor volume: 156±65 mm^3

## COC(=O)Nc1nc2ccc(C(=O)c3cccs3)cc2[nH]1 [nocodazole]
A10 cells; A10 cells, nocodazole alone
  effect on cell cycle transit: blocked cell cycle transit through M phase

## COCC(=O)O[C@]1(CCN(C)CCCc2nc3ccccc3[nH]2)CCc2cc(F)ccc2[C@@H]1C(C)C [mibefradil]
A10 cells; [3]
  effect on cell cycle transit: arrested cells at the cell cycle checkpoint between G0 and G1
PANC 219 tumor; PANC 219 tumor in nude mice
  tumor regression: did not cause tumor regression
PANC 219 tumor; PANC 219 tumor, growth normalized to size at start of treatment
  tumor growth: controlled tumor growth
PANC 219 tumor; n=10, day 9
  deaths in treatment group: One mouse in the treatment group died

## [Ni] [nickel]
A10 cells; [3]
  effect on cell cycle transit: arrested cells at the cell cycle checkpoint between G0 and G1
